Reference: patent US4157396A, “Hydroxamic acid derivatives and medicaments for treatment of urolithiasis and pyelonephrosis comprising such derivatives” (Eisai Co., Ltd., priority 1976, dated 1979)
Where two headings read alike, the source gives them in different places.

What was measured:
[1] = molecular target: T1, Urease collected and purified from sword beans (Canavalia gladiata) (Canavalia gladiata, UniProt A0AAN9R4W0); test: Determination of the urease inhibitory action; format: biochemical; conditions: read-out: 50% inhibitory concentration (M) of urease <I50>
T1 construct: single-chain plant urease, homohexamer by analogy with jack bean urease
T1 sequence (A0AAN9R4W0 entry or part of it): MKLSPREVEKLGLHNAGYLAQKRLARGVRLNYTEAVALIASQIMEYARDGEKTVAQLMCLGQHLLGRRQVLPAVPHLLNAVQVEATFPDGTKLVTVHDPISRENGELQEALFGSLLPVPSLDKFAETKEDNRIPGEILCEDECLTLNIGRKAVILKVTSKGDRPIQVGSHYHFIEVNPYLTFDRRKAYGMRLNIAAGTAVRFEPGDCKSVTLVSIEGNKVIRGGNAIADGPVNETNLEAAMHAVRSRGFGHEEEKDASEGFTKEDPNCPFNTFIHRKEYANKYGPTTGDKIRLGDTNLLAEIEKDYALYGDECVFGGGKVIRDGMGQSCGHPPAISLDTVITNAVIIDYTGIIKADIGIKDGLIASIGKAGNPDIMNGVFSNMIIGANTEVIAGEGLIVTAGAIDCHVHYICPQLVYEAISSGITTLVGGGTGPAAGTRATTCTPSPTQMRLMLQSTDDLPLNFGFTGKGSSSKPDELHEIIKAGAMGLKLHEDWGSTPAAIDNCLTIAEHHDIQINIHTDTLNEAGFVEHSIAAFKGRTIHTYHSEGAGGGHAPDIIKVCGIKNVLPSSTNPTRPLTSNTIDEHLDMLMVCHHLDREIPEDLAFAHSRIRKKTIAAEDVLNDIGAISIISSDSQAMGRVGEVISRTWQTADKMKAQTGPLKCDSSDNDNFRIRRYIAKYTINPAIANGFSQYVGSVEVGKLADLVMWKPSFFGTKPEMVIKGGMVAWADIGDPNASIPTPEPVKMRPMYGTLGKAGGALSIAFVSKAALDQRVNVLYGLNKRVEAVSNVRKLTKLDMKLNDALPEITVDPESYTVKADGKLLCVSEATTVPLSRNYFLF
Description: (i) Determination of the urease inhibitory action
Urease was collected and purified from sword beans (Canavalia gladiata) and mol concentrations of the examination compounds for inhibiting 50% of the activity of the urease were measured by the method of Kobashi et al [Refer to Biochim. Biophys. acta 227, 429-441 (1971)].

[2] = Determination of the transfer rate into the urine and calculation of the index; format: in vivo, male rats of SD strain; conditions: rat, male SD rats, 100 mg/Kg oral, measured as urease inhibitory action in excreted urine; for dose excreted at 6 h: 0-6 hours; for dose excreted at 24 h: 6-24 hours
Description: (ii) Determination of the transfer rate into the urine
Transfer rates into the urine of the examination compounds were determined according to the method of Kobashi et al [Refer to Biochemistry (Japan) vol. 44, No. 5, pp. 187-204 (1972) and Yakugaku Zasshi vol. 12, pp. 1564-1572 (1973)] by using the male rats of SD strain having the body weight of about 280 g, administering orally each 100 mg/Kg of the compounds, and measuring the urease inhibitory action in the excreted urine within a specified period of time.
(iii) Calculation of the index
The index was calculated from the resulting values of the above examinations (i) and (ii) according to the following equation: [formula] wherein n is chosen appropriately depending on the value of I50.
The value of the index is referred to as a standard of the urease inhibitory power of the administered examination compound in the urine.
It is seen that the larger the value of the index is, the more effectively the examination compounds transfer into the urine with a form having the urease inhibitory action. Results of the determination

Proteus mirabilis OM-1 [3] = test: Arrestment action to alkalization of the urine; format: cell-based; conditions: normal human urine inoculated with Proteus mirabilis OM-1, 37° C.
Description: (§1) Solutions to be examined were prepared by collecting each 18 ml of fresh urine from a normal human, and adding the respective examination compounds to each of the urine to make their concentration of 10^-3 M in one group, and of 2×10^-4 in the other group. On the other hand, same solutions containing no examination compounds were prepared as blanks.
Proteus mirabilis OM-1, a urease-producing bacterium, was inoculated in said solutions, so that the number of the bacteria may amount to 10^6 cell/ml, and cultured at 37° C. […] The arrestment ratio of calculus formation was calculated from said values.

Proteus mirabilis OM-1 [4] = test: Arrestment action to the calculus formation in the urine; format: cell-based; conditions: OM1, human urine with Proteus mirabilis OM-1, 24 hours, read-out: Arrest ratio to calculus formation (%), 24 hours; for inhibition at 200 µM: 2×10^-4 M; for inhibition at 1000 µM: 10^-3 M
Description: as §1
Proteus mirabilis OM-1, a urease-producing bacterium, was inoculated in said solutions, so that the number of the bacteria may amount to 10^6 cell/ml, and cultured at 37° C. After […] and 24 hours of the culture time, pH values of the solutions and amounts by weight of the formed and deposited calculus were measured. The arrestment ratio of calculus formation was calculated from said values.

[5] = Acute toxicity (LD50), oral; conditions: rat, in vivo
From the text: The examination was achieved by orally administering the examination compounds into male rats of SD strain weighing about 230 g, respectively.

[6] = Acute toxicity: observation of the general conditions; format: in vivo; conditions: for Number of death examples, Female / Number of death examples, Male: rat, in vivo
From the text: (§2) Eight week-old rats of SD strain (body weight: about 230 g for male and about 160 g for female) were used as the subject animals. The examination compounds were forcedly and orally administered in the following dosages, wherein 14 rats (7 male rats and 7 female rats, respectively) were used.

[7] = Acute toxicity: remarks on the dissection; format: in vivo, rats of SD strain; conditions: for Remarks on the dissection, death examples: macroscopic observation at the time of death; for Remarks on the dissection, survivor example: rat, in vivo
Description: as §2
The dissection was performed, for the death examples, at the time of death and, for the survivor example, after killing by discharging the blood when the observation of the general conditions was finished. The organs in the thoracic cavity and the abdominal cavity were closely observed with a macroscopic manner.

[8] = Examination of urine (Labstix test paper, amount, pH); format: in vivo, male SD strain rats; design: key to Protein in urine, hours 0-6 / Protein in urine, hours 6-24 / Glucose in urine, hours 0-6 / Glucose in urine, hours 6-24 / Ketone substances in urine, hours 0-6 / Ketone substances in urine, hours 6-24 / Occult blood in urine, hours 0-6 / Occult blood in urine, hours 6-24: (-); (±); (+); (++); (+++); conditions: 100 mg/Kg oral, male SD rats; for Ketone substances in urine, hours 0-6 / Occult blood in urine, hours 0-6 / Protein in urine, hours 0-6 / Glucose in urine, hours 6-24 / Ketone substances in urine, hours 6-24 / Occult blood in urine, hours 6-24 / Protein in urine, hours 6-24 / Glucose in urine, hours 0-6: Labstix; for Ketone substances in urine, hours 0-6 / Occult blood in urine, hours 0-6 / Protein in urine, hours 0-6: 0-6 hours; for Glucose in urine, hours 6-24 / Ketone substances in urine, hours 6-24 / Occult blood in urine, hours 6-24 / Protein in urine, hours 6-24: 6-24 hours; for Glucose in urine, hours 0-6: first collection period; for Amount and pH value of the urine: compared with the group given no examination compound
Description: To 5 male SD strain rats having the body weight of about 280 g in the respective groups, the examination compounds were forcedly and orally administered in a ratio of 100 mg/Kg in each time.
Natural urinations were respectively recovered 6 hours and 6-24 hours from the administration. As for control group wherein no examination compound is administered, natural urination was similarly recovered. Amount and pH value of the recovered urine were measured. Further, qualitative reaction concerning the respective items of protein, glucose, ketone substances, and occult blood in the urine was carried out by using Labstix text paper (manufactured and sold by Ames Company). Judgement was ranked as five levels, that is, (-), (±), (+), (++) and (+++).

Proteus mirabilis OM-1 [9] = test: Arrestment action to the calculus formation in the urine; format: cell-based; conditions: OM1, human urine with Proteus mirabilis OM-1, 8 hours, read-out: Arrest ratio to calculus formation (%), 8 hours; for inhibition at 200 µM: 2×10^-4 M; for inhibition at 1000 µM: 10^-3 M
[10] = single forced oral dose, SD rats, 7 male and 7 female per dose
[11] = single forced oral dose, SD rats, all administration groups

Compound | IC50 [1] | dose excreted at 6 h [2] | dose excreted at 24 h [2] | pH value, time 8 hours (Proteus mirabilis OM-1 [3]; 2×10^-4 M) | pH value, time 24 hours (Proteus mirabilis OM-1 [3]; 2×10^-4 M) | pH value, time 0 hour (Proteus mirabilis OM-1 [3]; 10^-3 M) | pH value, time 8 hours (Proteus mirabilis OM-1 [3]; 10^-3 M) | pH value, time 24 hours (Proteus mirabilis OM-1 [3]; 10^-3 M) | inhibition at 200 µM (Proteus mirabilis OM-1 [4]) | inhibition at 1000 µM (Proteus mirabilis OM-1 [4]) | LD50 ([5]; po) | Number of death examples, Female [6] | Number of death examples, Male [6] | Symptom [6, 10] | Baited amount [6, 11] | Remarks on the dissection, death examples [7] | Remarks on the dissection, survivor example [7] | Ketone substances in urine, hours 0-6 [8] | inhibition at 200 µM (Proteus mirabilis OM-1 [9]) | inhibition at 1000 µM (Proteus mirabilis OM-1 [9]) | other results
COc1ccc(C(=O)NCC(=O)NO)cc1 [Compound A, 2-(para-methoxy-benzamide)-acetohydroxamic acid] | 1.7e-06 M | 12% | 0.83% | 6.56±0.02 | 8.38±0.02 | 6.40±0.00 | 5.40±0.003 | 5.58±0.05 | 32 ± 3.4% | 76.6 ± 6% | > 5000 mg/kg | 0/7 | 1/7 | No change | No change | Erosion was observed | No abnormality | - | 99 ± 1% | 96.2 ± 0.4% | Behaviour [6, 10]: No change; Occult blood in urine, hours 0-6 [8]: -; Protein in urine, hours 0-6 [8]: +; Glucose in urine, hours 6-24 [8]: -; Ketone substances in urine, hours 6-24 [8]: -; Occult blood in urine, hours 6-24 [8]: -; Protein in urine, hours 6-24 [8]: ±; Glucose in urine, hours 0-6 [8]: -; Amount and pH value of the urine [8]: there was not found the difference
COc1cccc(C(=O)NCC(=O)NO)c1 [Compound B, 2-(meta-methoxy-benzamide)-acetohydroxamic acid] | 1.2e-06 M | 12.3% | 1.5% | 6.84±0.02 | 8.71±0.01 | 6.47±0.01 | 5.41±0.01 | 6.52±0.003 | 26.2 ± 5.7% | 79.1 ± 8.2% | > 5000 mg/kg | 3/7 | 2/7 | Hair raising | No change | Erosion was observed | No abnormality | - | 87.5 ± 1.6% | 82 ± 9.2% | pH value, time 0 hour (Proteus mirabilis OM-1 [3]; 2×10^-4 M): 6.45±0.01; Occult blood in urine, hours 0-6 [8]: -; Protein in urine, hours 0-6 [8]: +; Glucose in urine, hours 6-24 [8]: -; Ketone substances in urine, hours 6-24 [8]: -; Occult blood in urine, hours 6-24 [8]: -; Protein in urine, hours 6-24 [8]: ±; Glucose in urine, hours 0-6 [8]: -; Amount and pH value of the urine [8]: there was not found the difference
CC(=O)Nc1cccc(C(=O)NCC(=O)NO)c1 [Compound M, 2-(meta-acetylaminobenzamide)-acetohydroxamic acid] | 2e-06 M | 15% | 0.6% | 7.96±0.02 | 8.70±0.00 | 6.78±0.02 | 6.79±0.01 | 7.08±0.03 | 38.8 ± 8% | 81.4 ± 5.6% |  |  |  |  |  |  |  |  | 80.1 ± 6.7% | 91.5 ± 5.1% | LD50 ([5]; oral, male SD rats about 230 g): > 5000 mg/kg
O=C(CNC(=O)c1ccco1)NO [Compound R, 2-(2-furoilamino)-acetohydroxamic acid] | 1.3e-06 M | 15.5% | 0.68% | 6.65±0.02 | 8.52±0.01 | 6.46±0.00 | 5.42±0.01 | 6.98±0.02 | 28.4 ± 5.1% | 72.3 ± 8.3% |  |  |  |  |  |  |  |  | 85.6 ± 4.7% | 84.1 ± 5.5% | pH value, time 0 hour (Proteus mirabilis OM-1 [3]; 2×10^-4 M): 6.44±0.01; LD50 ([5]; oral, male SD rats about 230 g): > 5000 mg/kg
O=C(CNC(=O)c1ccc(Cl)cc1)NO [Control compound I, 2-(para-chloro-benzamide)-acetohydroxamic acid, reference compound] | 1e-06 M | 1% | 0.5% | 7.30±0.00 | 8.51±0.01 | 6.75±0.003 | 6.64±0.02 | 7.03±0.01 | 30.6 ± 13.9% | 82.5 ± 8.5% | > 5000 mg/kg | 0/7 | 3/7 | arantic change | Decrease | Petechiae and ulcer | Blacking change and hypertrophy of spleen | ++ | 77.2 ± 9.1% | 69.7 ± 9% | pH value, time 0 hour (Proteus mirabilis OM-1 [3]; 2×10^-4 M): 6.79±0.01; Body Weight decrease on average [6, 11]: 10%; Occult blood in urine, hours 0-6 [8]: -; Protein in urine, hours 0-6 [8]: ++; Glucose in urine, hours 6-24 [8]: +++; Ketone substances in urine, hours 6-24 [8]: +++; Occult blood in urine, hours 6-24 [8]: -; Protein in urine, hours 6-24 [8]: +++; Glucose in urine, hours 0-6 [8]: +++; Amount and pH value of the urine [8]: there was not found the difference
